The results in this text go back to patent publication US10517889B2, “Modulators of SMAD7 expression” (Ionis Pharmaceuticals, Inc., priority 2017, dated 2019).

Strand notation (5' to 3'): a small letter for the sugar, then the base; units joined by * are phosphorothioate-linked, units joined directly phosphodiester-linked; [ ] holds rarer units or linkages, { } end groups; capitals alone tell only the bases. k = constrained ethyl (cEt); [5mC] = 5-methylcytosine; d = 2'-deoxy (DNA)

The first data set relates to human SMAD7 mRNA. As to the kind of experiment: Antisense inhibition of human SMAD7 mRNA expression in Hep3B cells by 3-10-3 cEt gapmers, 10,000 nM, electroporation (Example 2). Format: cell-based. Particulars: Hep3B cells, electroporation with 10,000 nM antisense oligonucleotide, approximately 24 hours, SMAD7 mRNA by RT-PCR (RTS5062), relative to untreated control cells. The procedure, abridged:
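qRT-PCR (RTS5062) of SMAD7 mRNA, normalised to RIBOGREEN total RNA, gave percent inhibition relative to untreated controls. Hep3B cells at 20,000 per well received 10,000 nM oligonucleotide by electroporation, with ~24 h treatment.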
Usually % Inhibition stands for the drop in the measured response relative to a control, in per cent. In the case of “799466 (antisense kG*kA*k[5mC]*dA*dG*dA*dA*dG*d[5mC]*dT*d[5mC]*dT*dA*kG*kG*k[5mC]) [compound 799466]”, the “% Inhibition” value was 53%.
In the case of “799468 (antisense kT*k[5mC]*kA*d[5mC]*d[5mC]*dT*dT*dA*dG*dG*d[5mC]*d[5mC]*dT*kG*kT*kG) [compound 799468]”, the “% Inhibition” value was determined as 22%.
The same measure, in the same setting: with “799469 (antisense k[5mC]*kT*k[5mC]*d[5mC]*dG*d[5mC]*dA*dT*dA*dG*dA*d[5mC]*dA*kG*kA*kT) [compound 799469]” the figure was 69%; with “799470 (antisense kA*kA*kA*dA*dG*d[5mC]*dT*d[5mC]*d[5mC]*dG*d[5mC]*dA*dT*kA*kG*kA) [compound 799470]”, 10%.
As for “799472 (antisense kA*kG*k[5mC]*d[5mC]*dA*dT*dA*d[5mC]*d[5mC]*dT*d[5mC]*d[5mC]*dA*kT*k[5mC]*kT) [compound 799472]”, the “% Inhibition” value turned out to be 31%.
The same measure, in the same setting: with “799473 (antisense kT*kA*kT*d[5mC]*d[5mC]*d[5mC]*dA*dT*dG*dG*d[5mC]*dT*d[5mC]*kT*k[5mC]*kA) [compound 799473]” the figure was 63%; with “799474 (antisense k[5mC]*kA*kA*dG*dA*dG*dT*d[5mC]*d[5mC]*dA*dG*d[5mC]*d[5mC]*k[5mC]*kT*kA) [compound 799474]”, 39%.
Same read-out and setting: with “799475 (antisense kG*kT*kG*dA*dG*d[5mC]*dT*dG*dG*dG*d[5mC]*dT*dA*kT*kT*k[5mC]) [compound 799475]” the figure was 51%; with “799485 (antisense kA*kG*k[5mC]*d[5mC]*dA*d[5mC]*dT*d[5mC]*d[5mC]*d[5mC]*d[5mC]*dG*d[5mC]*k[5mC]*kA*k[5mC]) [compound 799485]”, 0%.
The same measure, in the same setting: with “799487 (antisense kA*kA*kA*d[5mC]*dA*dT*dA*dA*dT*dG*dA*d[5mC]*dT*kT*kA*kT) [compound 799487]” the figure was 0%.
With “799488 (antisense kT*kG*kG*dA*dA*dG*dA*d[5mC]*dA*d[5mC]*d[5mC]*d[5mC]*d[5mC]*k[5mC]*kA*k[5mC]) [compound 799488]”, the “% Inhibition” value stood at 42%.
“799489 (antisense kT*k[5mC]*kT*dA*dA*dA*d[5mC]*d[5mC]*dA*dT*dT*dT*dT*kG*kA*kT) [compound 799489]”: the “% Inhibition” value is reported as 0%.
As to “799490 (antisense kT*kT*kA*dA*dA*dT*dG*dG*dT*dG*dT*dA*dT*kA*k[5mC]*k[5mC]) [compound 799490]”, the “% Inhibition” value is listed as 0%.
Same read-out and setting: the value for “799491 (antisense kG*kG*k[5mC]*dA*dG*dG*d[5mC]*dA*dG*dG*dA*dA*dA*kT*kG*kG) [compound 799491]” was 38%.
Same read-out and setting: the value for “799492 (antisense kA*kA*kA*d[5mC]*dA*dA*dT*dA*dG*dA*dG*dG*d[5mC]*kA*kG*kG) [compound 799492]” was 58%.
As for “799493 (antisense kA*kT*kA*d[5mC]*dA*d[5mC]*dT*dT*dA*dA*dT*d[5mC]*dA*kA*kA*k[5mC]) [compound 799493]”, the “% Inhibition” value is 1%.
Same read-out and setting: with “799494 (antisense kA*kG*kG*dA*dT*dA*d[5mC]*dA*d[5mC]*dT*dT*dA*dA*kT*k[5mC]*kA) [compound 799494]” the figure was 45%.
Same read-out and setting: the value for “799505 (antisense k[5mC]*k[5mC]*k[5mC]*dG*dG*d[5mC]*dT*dA*dA*dG*dG*dA*dA*kA*kG*kG) [compound 799505]” was 31%; that for “799506 (antisense kG*kG*kA*dG*dA*dG*d[5mC]*d[5mC]*d[5mC]*dG*dG*d[5mC]*dT*kA*kA*kG) [compound 799506]” was 4%; that for “799507 (antisense kA*k[5mC]*kT*d[5mC]*dA*dT*dT*dA*dG*dT*d[5mC]*d[5mC]*d[5mC]*kA*kT*kG) [compound 799507]” was 34%.
For “799508 (antisense kG*k[5mC]*kA*dA*dT*dT*dA*dA*dA*dG*d[5mC]*dA*dA*kA*kA*k[5mC]) [compound 799508]”, the “% Inhibition” value came out at 0%.

The data set is the same for the next values; noted with them: Hep3B cells, electroporation with 10,000 nM antisense oligonucleotide, approximately 24 hours, primer probe set RTS5062, relative to untreated control cells.
Turning to “799457 (antisense k[5mC]*kA*k[5mC]*dG*dA*dT*dA*dG*dT*d[5mC]*dT*d[5mC]*dA*kG*k[5mC]*kA) [compound 799457]”, the “% inhibition of SMAD7 mRNA expression” value is 62%.
On to “799458 (antisense kT*kT*kG*dA*dA*dA*dA*d[5mC]*d[5mC]*d[5mC]*dA*dA*d[5mC]*k[5mC]*k[5mC]*kT) [compound 799458]”, for which the “% inhibition of SMAD7 mRNA expression” value stood at 3%.
Take “799459 (antisense kA*k[5mC]*kA*dG*dA*dG*dT*d[5mC]*dT*dT*dT*dG*dA*kA*kA*kA) [compound 799459]”: the “% inhibition of SMAD7 mRNA expression” value was determined as 0%.
Same read-out and setting: with “799460 (antisense k[5mC]*kA*kA*d[5mC]*dA*dG*dA*dG*dT*d[5mC]*dT*dT*dT*kG*kA*kA) [compound 799460]” the figure was 29%; with “799461 (antisense k[5mC]*kT*kG*d[5mC]*dG*dA*dG*dA*dG*dA*dA*dA*dA*kA*kG*kA) [compound 799461]”, 62%.
Still for that read-out and setting: with “799462 (antisense kA*kA*kG*d[5mC]*dA*d[5mC]*dT*dA*dG*dG*dT*dT*d[5mC]*kT*kG*k[5mC]) [compound 799462]” the figure was 43%.
Still for that read-out and setting: with “799463 (antisense kT*kG*kG*dT*dA*dA*dG*d[5mC]*dA*d[5mC]*dT*dA*dG*kG*kT*kT) [compound 799463]” the figure was 33%; with “799464 (antisense kA*kA*kG*d[5mC]*dA*d[5mC]*dT*dT*dG*dG*dT*dA*dA*kG*k[5mC]*kA) [compound 799464]”, 40%.
As to “799465 (antisense kA*kG*k[5mC]*dT*d[5mC]*dT*dA*dG*dG*d[5mC]*d[5mC]*dA*d[5mC]*kT*k[5mC]*k[5mC]) [compound 799465]”, the “% inhibition of SMAD7 mRNA expression” value stood at 64%.
The same measure, in the same setting: with “799476 (antisense kG*k[5mC]*kT*d[5mC]*dA*dA*dA*dG*dG*dG*d[5mC]*d[5mC]*dA*k[5mC]*k[5mC]*k[5mC]) [compound 799476]” the figure was 0%; with “799477 (antisense kG*kT*kT*d[5mC]*d[5mC]*dA*dT*dA*dG*dG*d[5mC]*dA*dG*k[5mC]*k[5mC]*kA) [compound 799477]”, 4%; with “799478 (antisense k[5mC]*k[5mC]*k[5mC]*dT*dA*d[5mC]*d[5mC]*dA*d[5mC]*d[5mC]*d[5mC]*d[5mC]*dT*kG*kT*kG) [compound 799478]”, 17%.
As for “799479 (antisense kT*kG*k[5mC]*d[5mC]*d[5mC]*dT*dT*d[5mC]*dT*dG*d[5mC]*dA*dG*kT*kG*kG) [compound 799479]”, the “% inhibition of SMAD7 mRNA expression” value is 24%.
On the same count and under the same terms, the value for “799480 (antisense k[5mC]*kA*k[5mC]*dA*d[5mC]*dA*dG*dG*d[5mC]*dA*dA*d[5mC]*d[5mC]*kA*k[5mC]*kA) [compound 799480]” was 45%; that for “799481 (antisense k[5mC]*kT*k[5mC]*d[5mC]*dA*d[5mC]*dA*d[5mC]*dA*dG*dG*d[5mC]*dA*kA*k[5mC]*k[5mC]) [compound 799481]” was 34%.
As to “799482 (antisense kG*kA*kA*dA*dA*dG*d[5mC]*d[5mC]*dG*dG*dG*d[5mC]*dA*kT*k[5mC]*kT) [compound 799482]”, the “% inhibition of SMAD7 mRNA expression” value came to 30%.
Still for that read-out and setting: the value for “799483 (antisense k[5mC]*kA*kA*dA*dG*dG*dA*dA*dA*dA*dG*d[5mC]*d[5mC]*kG*kG*kG) [compound 799483]” was 35%.
Same read-out and setting: the value for “799484 (antisense k[5mC]*kG*k[5mC]*d[5mC]*dA*d[5mC]*d[5mC]*dT*dT*dT*dG*dG*d[5mC]*kT*kG*kG) [compound 799484]” was 0%; that for “799495 (antisense k[5mC]*kT*kA*dA*d[5mC]*dA*dG*dG*dA*dA*dT*dA*dT*kA*k[5mC]*kA) [compound 799495]” was 25%; that for “799497 (antisense kA*kA*kG*dA*dA*d[5mC]*dT*d[5mC]*dT*d[5mC]*d[5mC]*dT*dA*kA*kG*k[5mC]) [compound 799497]” was 0%.

Staying with this data set, now noted: Hep3B cells, electroporation, 10,000 nM antisense oligonucleotide, approximately 24 hours, RTS5062, relative to untreated control cells.
“799498 (antisense kT*k[5mC]*kA*dA*dG*dA*dA*d[5mC]*dT*d[5mC]*dT*d[5mC]*d[5mC]*kT*kA*kA) [compound 799498]”: the “% inhibition of SMAD7 mRNA expression” value is given as 31%.
The same measure, in the same setting: the value for “799499 (antisense kT*k[5mC]*k[5mC]*dT*dT*dT*dA*dG*dT*dG*dG*d[5mC]*d[5mC]*kT*kA*k[5mC]) [compound 799499]” was 54%; that for “799500 (antisense kG*kA*kG*d[5mC]*dA*dG*dA*d[5mC]*dG*dG*dG*d[5mC]*dA*kA*kG*kT) [compound 799500]” was 28%; that for “799501 (antisense kA*kA*kA*dA*dG*dA*dG*d[5mC]*dA*dG*dA*d[5mC]*dG*kG*kG*k[5mC]) [compound 799501]” was 0%.
Same read-out and setting: with “799502 (antisense k[5mC]*kA*kA*dA*dT*dA*dG*dG*dA*dA*dA*dG*d[5mC]*k[5mC]*kA*kA) [compound 799502]” the figure was 31%.
The same measure, in the same setting: the value for “799503 (antisense kG*kG*k[5mC]*d[5mC]*dA*d[5mC]*d[5mC]*dA*dG*dG*dA*d[5mC]*dA*kA*kT*kG) [compound 799503]” was 0%; that for “799504 (antisense kA*kG*kG*dA*dA*dA*dG*dG*dT*dG*d[5mC]*dT*dG*k[5mC]*k[5mC]*k[5mC]) [compound 799504]” was 15%.
